This assay concerns AK4 lymphoid leukemia ip, C3AKF1 mice, survival. The experiment in a line: NCI In Vivo Anticancer Drug Screen. Data for tumor model AK4 Lymphoid Leukemia (intraperitoneal) in C3AKF1 (CHKRF1) mice. The note with it: endpoint: median survival time, higher = longer survival. The protocol: The antitumor activity of compounds was measured in mice bearing transplantable tumors. Survival or tumor size were measured and the results are expressed as the measurement made in the treated group (T) divided by the measurement made in the vehicle treated control group (C). The tumor model used in this assay is AK4 Lymphoid Leukemia (intraperitoneal) in C3AKF1 (CHKRF1) mice

[1] abbreviates: dose: 12.5 mg/kg/injection, schedule: Q01DX010 (sc), vehicle: steriod suspending solution.
Where [2] appears, read: dose: 25.0 mg/kg/injection, schedule: Q01DX010 (sc), vehicle: steriod suspending solution.
Setting [3] is: dose: 50.0 mg/kg/injection, schedule: Q01DX010 (sc), vehicle: steriod suspending solution.
Setting [4] is: dose: 100.0 mg/kg/injection, schedule: Q01DX010 (sc), vehicle: steriod suspending solution.
Setting [5] is: dose: 25.0 mg/kg/injection, schedule: Q01DX010 (ip), vehicle: saline.
Where [6] appears, read: dose: 100.0 mg/kg/injection, schedule: Q01DX010 (ip), vehicle: saline.
[7] abbreviates: dose: 5.0 mg/kg/injection, schedule: Q01DX010 (ip), vehicle: saline.
Setting [8] is: dose: 10.0 mg/kg/injection, schedule: Q01DX010 (ip), vehicle: saline.
Where [9] appears, read: dose: 20.0 mg/kg/injection, schedule: Q01DX010 (ip), vehicle: saline.
Where [10] appears, read: dose: 6.25 mg/kg/injection, schedule: Q01DX010 (ip), vehicle: saline.
[11] abbreviates: dose: 12.5 mg/kg/injection, schedule: Q01DX010 (ip), vehicle: saline.
Setting [12] is: dose: 200.0 mg/kg/injection, schedule: Q01DX010 (ip), vehicle: saline.
Setting [13] is: dose: 125.0 micrograms/kg/injection, schedule: Q01DX010 (ip), vehicle: saline.
The mark [14] stands for this setting: dose: 250.0 micrograms/kg/injection, schedule: Q01DX010 (ip), vehicle: saline.

“And” between values parts separate entries of the source, which are not always exact repeats. Equal entries are not always repeated. Toxic doses and inconclusive results are not listed.

For `C[C@]12C=CC(=O)C=C1CC[C@@H]1[C@@H]2C(=O)C[C@@]2(C)[C@H]1CC[C@]2(O)C(=O)CO`, the T/C by setting is: (dose: 6.25 mg/kg/injection, schedule: Q01DX010 (sc), vehicle: steriod suspending solution) 100 % of control; under setting [1], 100 % of control and 87 % of control; (dose: 12.5 mg/kg/injection, schedule: Q01DX Z (sc), vehicle: steriod suspending solution) 93 % of control; under setting [2], 100 % of control and 87 % of control; (dose: 25.0 mg/kg/injection, schedule: Q01DX Z (sc), vehicle: steriod suspending solution) 93 % of control; under setting [3], 90 % of control and 100 % of control (2×). Moreover, the T/C is 96 % of control and 100 % of control (dose: 50.0 mg/kg/injection, schedule: Q01DX Z (sc), vehicle: steriod suspending solution); 90 % of control and 118 % of control under setting [4]; 96 % of control (dose: 100.0 mg/kg/injection, schedule: Q01DX Z (sc), vehicle: steriod suspending solution); 105 % of control and 118 % of control (dose: 200.0 mg/kg/injection, schedule: Q01DX010 (sc), vehicle: steriod suspending solution); 96 % of control and 120 % of control (dose: 200.0 mg/kg/injection, schedule: Q01DX Z (sc), vehicle: steriod suspending solution).
On to `CCN(CC)CCNc1ccc(C)c2sc3ccccc3c(=O)c12`, for which the T/C was 122 % of control under setting [5] and 105 % of control under setting [6].
As for `NC(Cc1ccc(N(CCCl)CCCl)cc1)C(=O)O` (centres undefined), the T/C reads like this: (dose: 2.0 mg/kg/injection, schedule: Q01DX010 (ip), vehicle: saline) 150 % of control; (dose: 2.5 mg/kg/injection, schedule: Q01DX010 (ip), vehicle: saline) 164 % of control; under setting [7], 164 % of control; (dose: 8.0 mg/kg/injection, schedule: Q01DX010 (ip), vehicle: saline) 150 % of control; under setting [8], 158 % of control; (dose: 16.0 mg/kg/injection, schedule: Q01DX010 (ip), vehicle: saline) 100 % of control. In addition, the T/C under setting [9] was 117 % of control.
For the compound `Nc1nc(=S)c2[nH]cnc2[nH]1`, the T/C (dose: 1.25 mg/kg/injection, schedule: Q01DX010 (ip), vehicle: other) is 100 % of control and 114 % of control; the T/C (dose: 2.5 mg/kg/injection, schedule: Q01DX010 (ip), vehicle: other) is 93 % of control and 114 % of control; the T/C (dose: 5.0 mg/kg/injection, schedule: Q01DX010 (ip), vehicle: other) was 112 % of control; the T/C (dose: 10.0 mg/kg/injection, schedule: Q01DX010 (ip), vehicle: other) is 106 % of control.
With `O=NN(CCCl)C(=O)NCCCl`, the T/C under setting [10] is 168 % of control and 185 % of control; the T/C under setting [11] is 160 % of control and 181 % of control.
Turning to `Nc1c(Br)cc2c(c1Br)Cc1cc([N+](=O)[O-])ccc1-2`, the T/C reads like this: (dose: 62.5 mg/kg/injection, schedule: Q01DX010 (ip), vehicle: saline) 100 % of control and 105 % of control; (dose: 125.0 mg/kg/injection, schedule: Q01DX010 (ip), vehicle: saline) 94 % of control and 100 % of control; (dose: 250.0 mg/kg/injection, schedule: Q01DX010 (ip), vehicle: saline) 94 % of control and 105 % of control; (dose: 500.0 mg/kg/injection, schedule: Q01DX010 (ip), vehicle: saline) 94 % of control.
As for `CC(=O)O[C@]1(C(C)=O)CC[C@H]2[C@@H]3C[C@H](C)C4=CC(=O)C=C[C@]4(C)[C@@]3(F)[C@@H](O)C[C@@]21C`, the T/C runs as follows: under setting [1], 100 % of control; under setting [2], 100 % of control; under setting [3], 111 % of control; under setting [4], 88 % of control and 100 % of control.
Regarding `OC(CBr)C(O)C(O)C(O)CBr` (centres undefined), the T/C is, setting by setting: (dose: 50.0 mg/kg/injection, schedule: Q01DX010 (ip), vehicle: saline) 100 % of control and 87 % of control; under setting [6], 93 % of control and 87 % of control; under setting [12], 93 % of control and 100 % of control; (dose: 400.0 mg/kg/injection, schedule: Q01DX010 (ip), vehicle: saline) 100 % of control.
Take `Cc1cc2nc3c(=O)[nH]c(=O)nc-3n(CC(O)C(O)C(O)C(O)CO)c2cc1C` (centres undefined): the T/C is, setting by setting: (dose: 3.13 mg/kg/injection, schedule: Q01DX010 (ip), vehicle: saline) 105 % of control; under setting [10], 111 % of control; under setting [11], 105 % of control; under setting [5], 100 % of control and 105 % of control; under setting [12], 88 % of control.
On to `CSCS(=O)C[C@H](CO)NC(=O)/C=C/c1c(C)[nH]c(=O)[nH]c1=O` (some centres undefined), for which the T/C under setting [13] was 93 % of control; the T/C under setting [14] is 87 % of control; the T/C (dose: 500.0 micrograms/kg/injection, schedule: Q01DX010 (ip), vehicle: saline) is 87 % of control.
With `CC1CCOS(=O)O1` (centres undefined), the T/C is 100 % of control under setting [8]; 88 % of control and 100 % of control under setting [9]; 90 % of control and 100 % of control (dose: 40.0 mg/kg/injection, schedule: Q01DX010 (ip), vehicle: saline); 88 % of control (dose: 80.0 mg/kg/injection, schedule: Q01DX010 (ip), vehicle: saline).
For `O=c1c(O)cccc2cc(O)c(O)c(O)c12`, the T/C under setting [5] is 94 % of control.
With `CC[C@@H](c1ccc(O)cc1)[C@@H](CC)c1ccc(O)cc1`, the T/C (dose: 25.0 mg/kg/injection, schedule: Q01DX010 (ip), vehicle: water) was 100 % of control; the T/C (dose: 50.0 mg/kg/injection, schedule: Q01DX010 (ip), vehicle: water) was 87 % of control; the T/C (dose: 100.0 mg/kg/injection, schedule: Q01DX010 (ip), vehicle: water) is 87 % of control; the T/C (dose: 200.0 mg/kg/injection, schedule: Q01DX010 (ip), vehicle: water) was 87 % of control.
For `NC(=O)N(CCCl)N=O`, the T/C reads like this: (dose: 0.5 mg/kg/injection, schedule: Q01DX010 (ip), vehicle: saline) 162 % of control; (dose: 1.0 mg/kg/injection, schedule: Q01DX010 (ip), vehicle: saline) 168 % of control and 200 % of control; (dose: 4.0 mg/kg/injection, schedule: Q01DX010 (ip), vehicle: saline) 87 % of control.
Turning to `C[C@@H]1C[C@@H]([C@H](O)CC2CC(=O)NC(=O)C2)C(=O)[C@@H](C)C1`, the T/C under setting [7] was 100 % of control and 107 % of control; the T/C under setting [8] was 87 % of control and 121 % of control; the T/C under setting [9] was 93 % of control and 114 % of control.
`O=P1(N(CCCl)CCCl)NCCCO1` (centres undefined): the T/C is, setting by setting: (dose: 11.3 mg/kg/injection, schedule: Q01DX010 (ip), vehicle: saline) 175 % of control; (dose: 11.3 mg/kg/injection, schedule: Q01DX Z (ip), vehicle: saline) 180 % of control and 189 % of control; (dose: 22.5 mg/kg/injection, schedule: Q01DX010 (ip), vehicle: saline) 170 % of control and 187 % of control; (dose: 22.5 mg/kg/injection, schedule: Q01DX Z (ip), vehicle: saline) 202 % of control and 210 % of control; (dose: 45.0 mg/kg/injection, schedule: Q01DX010 (ip), vehicle: saline) 220 % of control and 375 % of control; (dose: 45.0 mg/kg/injection, schedule: Q01DX Z (ip), vehicle: saline) 196 % of control and 204 % of control. Further, the T/C was 105 % of control and 225 % of control (dose: 90.0 mg/kg/injection, schedule: Q01DX010 (ip), vehicle: saline); 151 % of control and 168 % of control (dose: 90.0 mg/kg/injection, schedule: Q01DX Z (ip), vehicle: saline); 105 % of control and 118 % of control (dose: 180.0 mg/kg/injection, schedule: Q01DX010 (ip), vehicle: saline); 113 % of control and 120 % of control (dose: 180.0 mg/kg/injection, schedule: Q01DX Z (ip), vehicle: saline).
For `N#Cc1cn(C2OC(CO)C(O)C2O)c2ncnc(N)c12` (centres undefined), the T/C is 100 % of control (dose: 31.3 micrograms/kg/injection, schedule: Q01DX010 (ip), vehicle: saline); 100 % of control (dose: 62.5 micrograms/kg/injection, schedule: Q01DX010 (ip), vehicle: saline); 118 % of control under setting [13]; 100 % of control under setting [14].
In the case of `S=P(N1CC1)(N1CC1)N1CC1`, the T/C is, setting by setting: (dose: 0.75 mg/kg/injection, schedule: Q01DX010 (ip), vehicle: saline) 104 % of control and 105 % of control; (dose: 1.5 mg/kg/injection, schedule: Q01DX010 (ip), vehicle: saline) 100 % of control and 105 % of control; (dose: 3.0 mg/kg/injection, schedule: Q01DX010 (ip), vehicle: saline) 95 % of control and 104 % of control; (dose: 6.0 mg/kg/injection, schedule: Q01DX010 (ip), vehicle: saline) 105 % of control and 109 % of control.

Values taken from PubChem BioAssay AID236 (DTP/NCI, 2004).
